Data reported in patent US12077503B2, “Substituted cyclic amides and their use as herbicides” (FMC CORPORATION, priority 2015, dated 2024).

Key:
Format in all cases: in vivo
[1] = system: barnyardgrass (Echinochloa crus-galli); experiment: Test G Pre-Emergence Protocol; conditions: Echinochloa crus-galli, pre-emergence, 312 h, evaluated after 13 days; for pest or weed control at 15.625 g/ha: 15.625 g ai/ha; for pest or weed control at 15.625 g/ha / pest or weed control at 250 g/ha: read-out: Barnyardgrass damage rating (100=total damage to plant; 0=no damage to plant); for pest or weed control at 62.5 g/ha: 62.5 g ai/ha, 100=total damage to plant, 0=no damage to plant, read-out: Barnyardgrass damage rating; for pest or weed control at 250 g/ha: 250 g ai/ha
Method in brief: (§1)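 Under a 24/16° C day/night regime with 14 h light and 65% humidity, sown pots were sprayed after one day with compound (15.625, 62.5 or 250 g/ha; 50:50 acetone/water, 0.5% Tween 20). Damage was assessed visually 13 days later, 0 to 100.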

corn (Zea mays) [2] = experiment: Test G Pre-Emergence Protocol; conditions: Zea mays, pre-emergence, 312 h, evaluated after 13 days; for plant injury at 15.625 g/ha: 15.625 g ai/ha; for plant injury at 15.625 g/ha / plant injury at 250 g/ha: read-out: Corn damage rating (100=total damage to plant; 0=no damage to plant); for plant injury at 62.5 g/ha: 62.5 g ai/ha, 100=total damage to plant, 0=no damage to plant, read-out: Corn damage rating; for plant injury at 250 g/ha: 250 g ai/ha
Method in brief: as §1

[3] = system: giant foxtail (Setaria faberi); experiment: Test G Pre-Emergence Protocol; conditions: Setaria faberi, pre-emergence, 312 h, evaluated after 13 days; for pest or weed control at 15.625 g/ha: 15.625 g ai/ha; for pest or weed control at 15.625 g/ha / pest or weed control at 250 g/ha: read-out: Foxtail, Giant damage rating (100=total damage to plant; 0=no damage to plant); for pest or weed control at 62.5 g/ha: 62.5 g ai/ha, 100=total damage to plant, 0=no damage to plant, read-out: Foxtail, Giant damage rating; for pest or weed control at 250 g/ha: 250 g ai/ha
Method in brief: as §1

[4] = system: ivy-leaved morning glory (Ipomoea hederacea); experiment: Test G Pre-Emergence Protocol; conditions: Ipomoea, pre-emergence, 312 h, evaluated after 13 days; for pest or weed control at 15.625 g/ha: 15.625 g ai/ha; for pest or weed control at 15.625 g/ha / pest or weed control at 250 g/ha: read-out: Morningglory, Ivy-leaved damage rating (100=total damage to plant; 0=no damage to plant); for pest or weed control at 62.5 g/ha: 62.5 g ai/ha, 100=total damage to plant, 0=no damage to plant, read-out: Morningglory, Ivy-leaved damage rating; for pest or weed control at 250 g/ha: 250 g ai/ha
Method in brief: as §1

[5] = system: redroot pigweed (Amaranthus retroflexus); experiment: Test G Pre-Emergence Protocol; conditions: Amaranthus retroflexus, pre-emergence, 312 h, evaluated after 13 days; for pest or weed control at 15.625 g/ha: 15.625 g ai/ha; for pest or weed control at 15.625 g/ha / pest or weed control at 250 g/ha: read-out: Pigweed, Redroot damage rating (100=total damage to plant; 0=no damage to plant); for pest or weed control at 62.5 g/ha: 62.5 g ai/ha, 100=total damage to plant, 0=no damage to plant, read-out: Pigweed, Redroot damage rating; for pest or weed control at 250 g/ha: 250 g ai/ha
Method in brief: as §1

[6] = system: velvetleaf (Abutilon theophrasti); experiment: Test G Pre-Emergence Protocol; conditions: Abutilon theophrasti, pre-emergence, 312 h, evaluated after 13 days; for pest or weed control at 15.625 g/ha: 15.625 g ai/ha; for pest or weed control at 15.625 g/ha / pest or weed control at 250 g/ha: read-out: Velvetleaf damage rating (100=total damage to plant; 0=no damage to plant); for pest or weed control at 62.5 g/ha: 62.5 g ai/ha, 100=total damage to plant, 0=no damage to plant, read-out: Velvetleaf damage rating; for pest or weed control at 250 g/ha: 250 g ai/ha
Method in brief: as §1

[7] = system: barnyardgrass (Echinochloa crus-galli); experiment: Test G Post-Emergence Protocol; conditions: Echinochloa crus-galli, post-emergence, 312 h, read-out: Barnyardgrass damage rating; for pest or weed control at 15.625 g/ha: 15.625 g ai/ha, evaluated after 13 days (100=total damage to plant; 0=no damage to plant); for pest or weed control at 62.5 g/ha: 62.5 g ai/ha; for pest or weed control at 62.5 g/ha / pest or weed control at 250 g/ha: evaluated after 13 days, 100=total damage to plant, 0=no damage to plant; for pest or weed control at 250 g/ha: 250 g ai/ha
Method in brief: (§2)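 Pot-grown seedlings, 8 days old, raised in a glasshouse at 24/16 °C day/night with 14 h light and 65% humidity, were sprayed post-emergence with test compound in acetone/water (50:50) plus 0.5% Tween 20 at 15.625, 62.5 or 250 g/ha. Damage was scored visually 13 days later on a 0–100 scale (100 = total damage).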

corn (Zea mays) [8] = experiment: Test G Post-Emergence Protocol; conditions: Zea mays, post-emergence, 312 h, read-out: Corn damage rating; for plant injury at 15.625 g/ha: 15.625 g ai/ha, evaluated after 13 days (100=total damage to plant; 0=no damage to plant); for plant injury at 62.5 g/ha: 62.5 g ai/ha; for plant injury at 62.5 g/ha / plant injury at 250 g/ha: evaluated after 13 days, 100=total damage to plant, 0=no damage to plant; for plant injury at 250 g/ha: 250 g ai/ha
Method in brief: as §2

[9] = system: giant foxtail (Setaria faberi); experiment: Test G Post-Emergence Protocol; conditions: Setaria faberi, post-emergence, 312 h, read-out: Foxtail, Giant damage rating; for pest or weed control at 15.625 g/ha: 15.625 g ai/ha, evaluated after 13 days (100=total damage to plant; 0=no damage to plant); for pest or weed control at 62.5 g/ha: 62.5 g ai/ha
Method in brief: as §2

[10] = system: ivy-leaved morning glory (Ipomoea hederacea); experiment: Test G Post-Emergence Protocol; conditions: Ipomoea, post-emergence, 312 h, read-out: Morningglory, Ivy-leaved damage rating; for pest or weed control at 15.625 g/ha: 15.625 g ai/ha, evaluated after 13 days (100=total damage to plant; 0=no damage to plant); for pest or weed control at 62.5 g/ha: 62.5 g ai/ha; for pest or weed control at 62.5 g/ha / pest or weed control at 250 g/ha: evaluated after 13 days, 100=total damage to plant, 0=no damage to plant; for pest or weed control at 250 g/ha: 250 g ai/ha
Method in brief: as §2

[11] = system: redroot pigweed (Amaranthus retroflexus); experiment: Test G Post-Emergence Protocol; conditions: Amaranthus retroflexus, post-emergence, 312 h, read-out: Pigweed, Redroot damage rating; for pest or weed control at 15.625 g/ha: 15.625 g ai/ha, evaluated after 13 days (100=total damage to plant; 0=no damage to plant); for pest or weed control at 62.5 g/ha: 62.5 g ai/ha; for pest or weed control at 62.5 g/ha / pest or weed control at 250 g/ha: evaluated after 13 days, 100=total damage to plant, 0=no damage to plant; for pest or weed control at 250 g/ha: 250 g ai/ha
Method in brief: as §2

[12] = system: velvetleaf (Abutilon theophrasti); experiment: Test G Post-Emergence Protocol; conditions: Abutilon theophrasti, post-emergence, 312 h, read-out: Velvetleaf damage rating; for pest or weed control at 15.625 g/ha: 15.625 g ai/ha, evaluated after 13 days (100=total damage to plant; 0=no damage to plant); for pest or weed control at 62.5 g/ha: 62.5 g ai/ha; for pest or weed control at 62.5 g/ha / pest or weed control at 250 g/ha: evaluated after 13 days, 100=total damage to plant, 0=no damage to plant; for pest or weed control at 250 g/ha: 250 g ai/ha
Method in brief: as §2

[13] = evaluated after 13 days, 100=total damage to plant, 0=no damage to plant

Structure (SMILES): COc1ncc([C@@H]2CN(C)C(=O)[C@H]2C(=O)Nc2cccc(F)c2F)cc1Cl (racemic) [Compound 1755]
- pest or weed control at 15.625 g/ha [1]: 70%
- pest or weed control at 62.5 g/ha [1]: 80%
- pest or weed control at 250 g/ha [1]: 90%
- plant injury at 15.625 g/ha (corn (Zea mays) [2]): 20%
- plant injury at 62.5 g/ha (corn (Zea mays) [2]): 60%
- plant injury at 250 g/ha (corn (Zea mays) [2]): 80%
- pest or weed control at 15.625 g/ha [3]: 80%
- pest or weed control at 62.5 g/ha [3]: 90%
- pest or weed control at 250 g/ha [3]: 90%
- pest or weed control at 15.625 g/ha [4]: 0%
- pest or weed control at 62.5 g/ha [4]: 20%
- pest or weed control at 250 g/ha [4]: 80%
- pest or weed control at 15.625 g/ha [5]: 0%
- pest or weed control at 62.5 g/ha [5]: 40%
- pest or weed control at 250 g/ha [5]: 70%
- pest or weed control at 15.625 g/ha [6]: 0%
- pest or weed control at 62.5 g/ha [6]: 20%
- pest or weed control at 250 g/ha [6]: 70%
- pest or weed control at 15.625 g/ha [7]: 60%
- pest or weed control at 62.5 g/ha [7]: 70%
- pest or weed control at 250 g/ha [7]: 80%
- plant injury at 15.625 g/ha (corn (Zea mays) [8]): 10%
- plant injury at 62.5 g/ha (corn (Zea mays) [8]): 80%
- plant injury at 250 g/ha (corn (Zea mays) [8]): 80%
- pest or weed control at 15.625 g/ha [9]: 70%
- pest or weed control at 62.5 g/ha [9, 13]: 80%
- pest or weed control at 15.625 g/ha [10]: 60%
- pest or weed control at 62.5 g/ha [10]: 70%
- pest or weed control at 250 g/ha [10]: 70%
- pest or weed control at 15.625 g/ha [11]: 10%
- pest or weed control at 62.5 g/ha [11]: 20%
- pest or weed control at 250 g/ha [11]: 30%
- pest or weed control at 15.625 g/ha [12]: 10%
- pest or weed control at 62.5 g/ha [12]: 30%
- pest or weed control at 250 g/ha [12]: 60%

Structure (SMILES): CN1C[C@H](c2ccc(C(F)(F)F)cc2)[C@@H](C(=O)Nc2cccc3ccsc23)C1=O (racemic) [Compound 1757]
- pest or weed control at 15.625 g/ha [1]: 0%
- pest or weed control at 62.5 g/ha [1]: 10%
- pest or weed control at 250 g/ha [1]: 10%
- plant injury at 15.625 g/ha (corn (Zea mays) [2]): 0%
- plant injury at 62.5 g/ha (corn (Zea mays) [2]): 0%
- plant injury at 250 g/ha (corn (Zea mays) [2]): 0%
- pest or weed control at 15.625 g/ha [3]: 0%
- pest or weed control at 62.5 g/ha [3]: 30%
- pest or weed control at 250 g/ha [3]: 70%
- pest or weed control at 15.625 g/ha [4]: 0%
- pest or weed control at 62.5 g/ha [4]: 0%
- pest or weed control at 250 g/ha [4]: 0%
- pest or weed control at 15.625 g/ha [5]: 0%
- pest or weed control at 62.5 g/ha [5]: 0%
- pest or weed control at 250 g/ha [5]: 0%
- pest or weed control at 15.625 g/ha [6]: 0%
- pest or weed control at 62.5 g/ha [6]: 0%
- pest or weed control at 250 g/ha [6]: 0%
- pest or weed control at 15.625 g/ha [7]: 0%
- pest or weed control at 62.5 g/ha [7]: 10%
- pest or weed control at 250 g/ha [7]: 30%
- plant injury at 15.625 g/ha (corn (Zea mays) [8]): 0%
- plant injury at 62.5 g/ha (corn (Zea mays) [8]): 0%
- plant injury at 250 g/ha (corn (Zea mays) [8]): 0%
- pest or weed control at 15.625 g/ha [9]: 0%
- pest or weed control at 62.5 g/ha [9, 13]: 20%
- pest or weed control at 250 g/ha ([9]; 250 g ai/ha, evaluated after 13 days, 100=total damage to plant, 0=no damage to plant): 60%
- pest or weed control at 15.625 g/ha [10]: 0%
- pest or weed control at 62.5 g/ha [10]: 0%
- pest or weed control at 250 g/ha [10]: 10%
- pest or weed control at 15.625 g/ha [11]: 0%
- pest or weed control at 62.5 g/ha [11]: 0%
- pest or weed control at 250 g/ha [11]: 0%
- pest or weed control at 15.625 g/ha [12]: 0%
- pest or weed control at 62.5 g/ha [12]: 0%
- pest or weed control at 250 g/ha [12]: 0%
